Assay results taken from patent publication US12220703B2, “Multi function spinning platform” (Danmarks Tekniske Universitet, priority 2018, dated 2025).

System: P. aeruginosa biofilm
Assay: Antibiotic treatment of mature biofilm in perfusion on the centrifugal microfluidic disc, propidium iodide dead/alive biomass by confocal microscopy
Assay type: cell-based
Conditions: 72 hours biofilm, after 24 hours of antibiotic perfusion, ciprofloxacin 4 μg/mL
Protocol: The following is an example of how to set up an experiment using the centrifugal microfluidic disc according to the present disclosure. Initially, the entire system including the microfluidic channels is sterilized. After the sterilization of the disc, the system was filled with a medium and left overnight at a low flow rate (pump set on 0.5 RPM, around 60 μL/min). The inoculation of the bacteria in the sterilized disc was achieved by addition of 40 μL overnight culture of 1:100 diluted P. aeruginosa though the inoculation channel situated in close proximity to the cell culture chamber (see FIG. 30). During inoculation, the loading opening was closed to create a back-pressure avoiding bacteria occlusion in the serpentine channel. The adhesion of the bacteria in the culture chamber was carried out in stop flow for one hour, followed by rotation at the set frequency. The total volume of the cell chamber is around 55 μL and only 40 μL of PAO1 was inoculated in order to prevent the introduction of bacteria in the inlet channel. The inoculation in the flow system was achieved by stopping the pump and adding 250 μL overnight culture of 1:100 diluted P. aeruginosa in the selected channels in proximity of the flow chamber. It was important to clamp the silicone tubes which were feeding the channels in order to avoid a back flow. […]

## O=C(O)c1cn(C2CC2)c2cc(N3CCNCC3)c(F)cc2c1=O [antibiotic, Ciprofloxacin]
Flow rate 0.3 μL/min
  bacteria dead after antibiotic perfusion: around 70%
Flow rate 1 μL/min
  bacteria dead after antibiotic perfusion: around 50%
